Data from article PMC10698194 (Nature Communications, 2023).
Where “and” joins values, the source holds several entries; their conditions need not be identical. Identical values can stand only once. Like-named read-outs stand apart in the source and are kept apart here. Bridge positions count the residues as written; N and C are the ends. Square brackets hold non-standard residues; d marks the D form. Peptide text beside a SMILES is read from it. * marks the point of attachment. X1 = C=CCN1CC[C@]23c4c5ccc(O)c4O[C@H]2[C@H](N*)CC[C@@]3(O)[C@H]1C5

Legend:
[1] = target: T1, mouse MOR (Mus musculus, UniProt P42866); assay: Schild regression vs DAMGO in cAMP assay, HEK293 cells; format: cell-based; conditions: for log (A'/A-1): Schild plot Figure S14c; for average functional affinity: from pA2
T1 construct: expressed in transfected cells

[2] = target: T2, human MOR (Homo sapiens, UniProt P35372); assay: Schild regression vs DAMGO in [35S]GTPγS binding assay, CHO membranes; format: biochemical; conditions: for log (A'/A-1): Schild plot Figure S14d
T2 construct: expressed in transfected cells

[3] = target: mouse KOR, Gαi1 (Mus musculus, UniProt P33534); assay: TRUPATH BRET G protein assay, Gαi1; format: cell-based; conditions: read-out: Emax (%) Gαi1
[4] = target: T3, mouse KOR, Gαi2 (Mus musculus, UniProt P33534); assay: TRUPATH BRET G protein assay, Gαi2; format: cell-based; conditions: TRUPATH
T3 construct: expressed in transfected cells; host or cells: HEK293T (ATCC, CRL-3216), transient

[5] = target: mouse KOR, GαoA (Mus musculus, UniProt P33534); assay: TRUPATH BRET G protein assay, GαoA; format: cell-based; conditions: read-out: Emax (%) GαoA
[6] = target: mouse KOR, Gαz (Mus musculus, UniProt P33534); assay: TRUPATH BRET G protein assay, Gαz; format: cell-based; conditions: Gαz subtype
[7] = target: mouse KOR, Gαgustducin (Mus musculus, UniProt P33534); assay: TRUPATH BRET G protein assay, Gαgustducin; format: cell-based; conditions: read-out: Emax (%) Gαgustducin
[8] = target: T4, human KOR D138A (Homo sapiens, UniProt P41145, D138A); assay: cAMP inhibition assay normalized to salvinorin A; format: cell-based
T4 construct: expressed in transfected cells

[9] = target: T5, human KOR Q115A (Homo sapiens, UniProt P41145, Q115A); format: cell-based; conditions: HEK-293T
T5 construct: FLAG; expressed in transfected cells; host or cells: HEK293 / HEK293T, transient

[10] = target: T6, human KOR I135A (Homo sapiens, UniProt P41145, I135A); format: cell-based; conditions: HEK-293T
T6 construct: FLAG; expressed in transfected cells; host or cells: HEK293 / HEK293T, transient

[11] = target: T7, human KOR K227A (Homo sapiens, UniProt P41145, K227A); format: cell-based; conditions: HEK-293T
T7 construct: FLAG; expressed in transfected cells; host or cells: HEK293 / HEK293T, transient

[12] = target: T8, human KOR Y320A (Homo sapiens, UniProt P41145, Y320A); format: cell-based; conditions: HEK-293T
T8 construct: FLAG; expressed in transfected cells; host or cells: HEK293 / HEK293T, transient

[13] = target: T9, human KOR F293A (Homo sapiens, UniProt P41145, F293A); format: cell-based; conditions: HEK-293T
T9 construct: FLAG; expressed in transfected cells; host or cells: HEK293 / HEK293T, transient

[14] = target: T10, human KOR E297A (Homo sapiens, UniProt P41145, E297A); format: cell-based; conditions: HEK-293T, KOR E297A
T10 construct: FLAG; expressed in transfected cells; host or cells: HEK293T

[15] = target: T11, human KOR H304A (Homo sapiens, UniProt P41145, H304A); format: cell-based; conditions: HEK-293T
T11 construct: FLAG; expressed in transfected cells; host or cells: HEK293T

[16] = target: T12, human KOR WT (Homo sapiens, UniProt P41145); assay: BRET β-arrestin-2 biosensor assay; format: cell-based; conditions: KOR WT
T12 construct: FLAG; expressed in transfected cells; host or cells: HEK293T, transient

[17] = target: T5, human KOR Q115A; assay: BRET β-arrestin-2 biosensor assay; format: cell-based
[18] = target: T6, human KOR I135A; assay: BRET β-arrestin-2 biosensor assay; format: cell-based
[19] = target: T13, human KOR M142A (Homo sapiens, UniProt P41145, M142A); assay: BRET β-arrestin-2 biosensor assay; format: cell-based
T13 construct: FLAG; expressed in transfected cells; host or cells: HEK293 / HEK293T, transient

[20] = target: T7, human KOR K227A; assay: BRET β-arrestin-2 biosensor assay; format: cell-based
[21] = target: T14, human KOR I316A (Homo sapiens, UniProt P41145, I316A); assay: BRET β-arrestin-2 biosensor assay; format: cell-based
T14 construct: FLAG; expressed in transfected cells; host or cells: HEK293 / HEK293T, transient

[22] = target: T9, human KOR F293A; assay: BRET β-arrestin-2 biosensor assay; format: cell-based
[23] = target: T10, human KOR E297A; assay: BRET β-arrestin-2 biosensor assay; format: cell-based; conditions: KOR E297A
[24] = target: T15, human KOR L309A (Homo sapiens, UniProt P41145, L309A); assay: BRET β-arrestin-2 biosensor assay; format: cell-based; conditions: KOR L309A
T15 construct: FLAG; expressed in transfected cells; host or cells: HEK293T

[25] = Serum stability assay (HPLC)
Procedure: Blood was drawn from healthy volunteers devoid of any medication for 14 days from the antecubital vein using 21 G needles and collected in a serum clot activator tube (4 mL tubes, Greiner bio-one). […] Volunteers gave written informed consent before blood donation. […] Blood samples were collected into Vacuette® clot activator tubes (Greiner Bio-One, Austria). After clotting of about 2 h, the samples were centrifuged at 2200 × g for 15 min at 22 °C. The serum was removed and centrifuged again to remove lipids and cell particles at 16,000 × g at 4 °C for 20 min. […] The samples were incubated at 37 °C under continuous shaking at 300 rotations-per-minute. […] The samples were mixed well and incubated on ice for 10 min. For the protein precipitation, 30 µL of a 20% (w/v) trichloroacetic acid was added and incubated on ice for 15 min. The clear supernatant was harvested by centrifugation at 16,000 × g at 4 °C for 20 min and this sample was used for HPLC analysis. The chromatography HPLC system was a ThermoFisher Ultimate 3000 equipped with a pump, autosampler and single wavelength detector. […] The remaining peptide was calculated relative to the AUC at time point zero. The data points were fitted to a one-phase decay function and to determine the resulting half-life of the peptide in serum.
0.1% trifluoroacetic acid in water and acetonitrile/water trifluoroacetic acid 90/10/0.1% (v/v/v) with a
linear separation gradient over 30 min.

[26] = target: mouse KOR (Mus musculus, UniProt P33534); assay: cell-based; parameters: expressed in transfected cells; conditions: HEK-293T, read-out: Emax cAMP assay
[27] = target: T16, human KOR (Homo sapiens, UniProt P41145); assay: [35S]GTPγS binding assay, CHO membranes; format: biochemical; parameters: expressed in transfected cells
[28] = target: T16, human KOR; assay: cell-based; parameters: expressed in transfected cells; host or cells: HEK293, transient; conditions: HEK293, read-out: Emax β-arrestin-1 recruitment
[29] = authors' response in peer review file

T2 sequence (P35372 whole entry): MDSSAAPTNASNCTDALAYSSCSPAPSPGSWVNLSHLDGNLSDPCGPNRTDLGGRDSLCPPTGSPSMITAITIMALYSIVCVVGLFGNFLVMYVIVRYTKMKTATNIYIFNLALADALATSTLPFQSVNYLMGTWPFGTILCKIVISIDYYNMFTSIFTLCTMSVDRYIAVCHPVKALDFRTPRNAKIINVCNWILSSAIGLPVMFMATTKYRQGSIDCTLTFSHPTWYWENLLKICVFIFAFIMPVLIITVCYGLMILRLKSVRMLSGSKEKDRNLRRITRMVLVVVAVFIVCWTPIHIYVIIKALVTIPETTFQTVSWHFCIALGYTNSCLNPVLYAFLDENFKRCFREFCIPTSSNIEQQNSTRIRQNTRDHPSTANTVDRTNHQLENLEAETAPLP
T1 sequence (P42866 whole entry): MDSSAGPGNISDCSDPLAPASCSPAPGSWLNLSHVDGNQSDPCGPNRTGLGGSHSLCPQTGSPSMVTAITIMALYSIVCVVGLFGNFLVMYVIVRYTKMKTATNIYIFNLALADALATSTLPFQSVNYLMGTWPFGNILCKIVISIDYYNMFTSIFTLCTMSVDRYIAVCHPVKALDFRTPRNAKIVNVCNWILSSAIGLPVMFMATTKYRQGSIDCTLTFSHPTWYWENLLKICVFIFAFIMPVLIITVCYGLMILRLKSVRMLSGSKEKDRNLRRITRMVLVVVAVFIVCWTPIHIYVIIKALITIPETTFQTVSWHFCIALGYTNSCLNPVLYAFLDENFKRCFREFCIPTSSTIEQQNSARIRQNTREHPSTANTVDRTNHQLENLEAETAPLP
T6 sequence (P41145 whole entry I135A): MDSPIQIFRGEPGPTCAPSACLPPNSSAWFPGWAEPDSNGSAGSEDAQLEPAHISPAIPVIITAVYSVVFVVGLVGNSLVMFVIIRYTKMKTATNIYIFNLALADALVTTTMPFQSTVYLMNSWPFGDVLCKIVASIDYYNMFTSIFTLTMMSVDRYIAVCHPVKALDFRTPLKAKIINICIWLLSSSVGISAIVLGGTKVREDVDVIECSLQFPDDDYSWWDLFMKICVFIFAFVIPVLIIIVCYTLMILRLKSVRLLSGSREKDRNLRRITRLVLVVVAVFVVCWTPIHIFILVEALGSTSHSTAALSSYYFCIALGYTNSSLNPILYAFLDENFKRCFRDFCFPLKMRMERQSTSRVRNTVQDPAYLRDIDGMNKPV
T16 sequence (P41145 whole entry): as the sequence (P41145 whole entry I135A) above, with A135I counted along it
T9 sequence (P41145 whole entry F293A): as the sequence (P41145 whole entry I135A) above, with A135I, F293A counted along it
T5 sequence (P41145 whole entry Q115A): as the sequence (P41145 whole entry I135A) above, with Q115A, A135I counted along it
T7 sequence (P41145 whole entry K227A): as the sequence (P41145 whole entry I135A) above, with A135I, K227A counted along it
T4 sequence (P41145 whole entry D138A): as the sequence (P41145 whole entry I135A) above, with A135I, D138A counted along it
T10 sequence (P41145 whole entry E297A): as the sequence (P41145 whole entry I135A) above, with A135I, E297A counted along it
T12 sequence (P41145 whole entry): as the sequence (P41145 whole entry I135A) above, with A135I counted along it
T15 sequence (P41145 whole entry L309A): as the sequence (P41145 whole entry I135A) above, with A135I, L309A counted along it
T11 sequence (P41145 whole entry H304A): as the sequence (P41145 whole entry I135A) above, with A135I, H304A counted along it
T8 sequence (P41145 whole entry Y320A): as the sequence (P41145 whole entry I135A) above, with A135I, Y320A counted along it
T13 sequence (P41145 whole entry M142A): as the sequence (P41145 whole entry I135A) above, with A135I, M142A counted along it
T14 sequence (P41145 whole entry I316A): as the sequence (P41145 whole entry I135A) above, with A135I, I316A counted along it
Chain of mouse KOR (P33534 whole entry): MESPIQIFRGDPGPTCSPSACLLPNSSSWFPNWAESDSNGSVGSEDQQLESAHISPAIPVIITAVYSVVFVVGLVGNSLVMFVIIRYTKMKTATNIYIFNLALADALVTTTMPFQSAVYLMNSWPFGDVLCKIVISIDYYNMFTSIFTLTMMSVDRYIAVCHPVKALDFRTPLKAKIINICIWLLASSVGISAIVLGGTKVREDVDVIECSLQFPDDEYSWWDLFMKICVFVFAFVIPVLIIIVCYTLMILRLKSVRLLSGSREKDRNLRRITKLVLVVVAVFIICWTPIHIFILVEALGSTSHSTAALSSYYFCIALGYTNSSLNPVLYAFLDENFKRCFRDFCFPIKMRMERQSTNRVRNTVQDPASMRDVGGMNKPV
Chain of mouse KOR, Gαi1 (P33534 whole entry): as above
Chain of mouse KOR, Gαi1 (P63096 2-354 partner): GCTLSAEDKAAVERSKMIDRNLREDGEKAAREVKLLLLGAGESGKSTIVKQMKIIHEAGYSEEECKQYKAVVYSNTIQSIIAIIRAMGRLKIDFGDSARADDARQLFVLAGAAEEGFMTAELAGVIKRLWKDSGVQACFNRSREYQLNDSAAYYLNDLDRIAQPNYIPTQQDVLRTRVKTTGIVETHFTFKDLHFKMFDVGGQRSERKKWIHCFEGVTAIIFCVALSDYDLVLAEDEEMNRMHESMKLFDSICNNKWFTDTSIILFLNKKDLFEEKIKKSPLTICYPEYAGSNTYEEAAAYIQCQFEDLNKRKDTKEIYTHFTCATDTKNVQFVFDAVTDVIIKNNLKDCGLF
Chain of mouse KOR, GαoA (P33534 whole entry): as the sequence (P33534 whole entry) above
Chain of mouse KOR, GαoA (P09471 2-354 partner): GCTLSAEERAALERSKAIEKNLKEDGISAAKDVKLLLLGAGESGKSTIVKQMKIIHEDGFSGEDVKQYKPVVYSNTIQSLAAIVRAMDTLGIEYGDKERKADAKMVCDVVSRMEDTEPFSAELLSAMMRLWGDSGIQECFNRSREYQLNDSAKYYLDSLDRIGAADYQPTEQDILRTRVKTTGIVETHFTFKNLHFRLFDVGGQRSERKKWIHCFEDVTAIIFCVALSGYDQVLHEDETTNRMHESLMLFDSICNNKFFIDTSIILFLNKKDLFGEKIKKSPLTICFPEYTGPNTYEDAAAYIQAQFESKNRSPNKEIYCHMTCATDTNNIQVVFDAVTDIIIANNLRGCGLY
Chain of mouse KOR, Gαz (P33534 whole entry): as the sequence (P33534 whole entry) above
Chain of mouse KOR, Gαz (P19086 2-355 partner): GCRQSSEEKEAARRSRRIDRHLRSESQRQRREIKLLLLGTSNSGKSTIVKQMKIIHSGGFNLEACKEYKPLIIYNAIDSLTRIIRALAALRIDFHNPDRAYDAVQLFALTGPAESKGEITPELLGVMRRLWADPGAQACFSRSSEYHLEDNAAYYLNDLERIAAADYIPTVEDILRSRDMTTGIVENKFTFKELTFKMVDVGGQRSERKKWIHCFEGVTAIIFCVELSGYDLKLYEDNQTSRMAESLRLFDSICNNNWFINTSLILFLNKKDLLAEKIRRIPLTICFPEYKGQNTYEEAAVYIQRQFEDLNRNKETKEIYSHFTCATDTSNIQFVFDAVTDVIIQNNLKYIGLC
T3 sequence (P33534 whole entry): as the sequence (P33534 whole entry) above
Chain of mouse KOR, Gαgustducin (P33534 whole entry): as above
Chain of mouse KOR, Gαgustducin (A8MTJ3 2-354 partner): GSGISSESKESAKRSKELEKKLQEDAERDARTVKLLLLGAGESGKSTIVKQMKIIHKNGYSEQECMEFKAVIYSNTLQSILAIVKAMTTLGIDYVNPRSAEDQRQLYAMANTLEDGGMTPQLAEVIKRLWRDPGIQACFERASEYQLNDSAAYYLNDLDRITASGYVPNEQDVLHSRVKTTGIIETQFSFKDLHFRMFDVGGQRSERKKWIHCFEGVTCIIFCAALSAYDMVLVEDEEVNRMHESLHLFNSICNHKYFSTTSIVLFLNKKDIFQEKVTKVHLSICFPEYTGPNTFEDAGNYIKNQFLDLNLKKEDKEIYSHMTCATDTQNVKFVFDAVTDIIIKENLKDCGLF

In the case of `C=CCN1CC[C@]23c4c5ccc(O)c4O[C@H]2[C@H](NC(=O)[C@@H](Cc2ccccc2)NC(=O)[C@@H](NC(=O)[C@@H]2CSCC(=O)N[C@@H](Cc4ccc(O)cc4)C(=O)N[C@@H](C)C(=O)N[C@H](Cc4ccc(O)cc4)C(=O)N[C@@H]([C@@H](C)O)C(=O)N[C@@H]([C@@H](C)O)C(=O)N2)[C@@H](C)O)CC[C@@]3(O)[C@H]1C5` [DNCP-β-NalA(1)] ({CH2CO}-YA[dY]TTCT[dF]-X1; thioether N-6), the “log (A'/A-1)” value ([1]; log B -6.5) is reported as 2.497, the “log (A'/A-1)” value ([1]; log B -7) is reported as 1.821 and the “log (A'/A-1)” value ([1]; log B -7.5) is reported as 1.578. The “log (A'/A-1)” value ([1]; log B -8) was 1.074, the average functional affinity [1] was 0.8 nM and the average functional affinity [1, 29] was 0.794 nM. For the same compound, the “Schild linear regression slope” value ([1]; vs DAMGO) was 0.9, the “log (A'/A-1)” value ([2]; log B -7) was 1.45 and the “log (A'/A-1)” value ([2]; log B -7.5) was 0.36. For the same compound, the “log (A'/A-1)” value ([2]; log B -8) was -0.07, the average functional affinity ([2]; from pA2) was 13 nM and the “Schild linear regression slope” value ([2]; vs DAMGO) was 1.5. It also gave an Emax [3] of 81%, an Emax [4] of 62 ± 6% and an Emax [5] of 56 ± 7%. The highest potency [6] was “picomolar range”, the Emax [7] was 101 ± 5% and the “reduction of cAMP inhibition potency” value ([8]; D138A vs WT, authors' response) was 17 fold. For the same compound, the Emax ([8]; KOR D138A, normalized to salvinorin A) was 105 ± 2.4%, the Emax [9] was 90.2 ± 1.46% and the Emax [10] was 45.8 ± 1.95%. It also gave an Emax [11] of 47.9 ± 1.19%, an Emax [12] of 86.8 ± 2.05% and an Emax [13] of 85.55 ± 0.78%. For the same compound, the Emax [14] was 96.28 ± 0.53%, the Emax [15] was 92.57 ± 0.43% and the Emax [16] was 35.3 ± 1.13%. For the same compound, the Emax [17] was 60 ± 1.71%, the BRET-βarresin2 recruitment ([18]; Log [ligand] (M) -5, single replicates) was 0.1789 and 0.1779 and 0.1349 and 0.1369 (2×) and the BRET-βarresin2 recruitment ([18]; Log [ligand] (M) -6, single replicates) was 0.1739 and 0.1699 and 0.1669 and 0.1229 and 0.1319 and 0.1359. The BRET-βarresin2 recruitment ([18]; Log [ligand] (M) -7, single replicates) was 0.1699 (2×) and 0.1609 and 0.1309 and 0.1289 and 0.1299, the BRET-βarresin2 recruitment ([18]; Log [ligand] (M) -8, single replicates) was 0.1669 and 0.1659 and 0.1729 and 0.1269 and 0.1239 and 0.1349 and the BRET-βarresin2 recruitment ([18]; Log [ligand] (M) -9, single replicates) was 0.1669 (2×) and 0.1649 and 0.1249 and 0.1239 and 0.1259. The BRET-βarresin2 recruitment ([18]; Log [ligand] (M) -10, single replicates) was 0.1689 and 0.1639 (2×) and 0.1279 and 0.1309 and 0.1339, the BRET-βarresin2 recruitment ([18]; Log [ligand] (M) -11, single replicates) was 0.1699 and 0.1669 and 0.1689 and 0.1249 and 0.1279 (2×) and the BRET-βarresin2 recruitment ([18]; Log [ligand] (M) -12, single replicates) was 0.1519 and 0.1569 (2×) and 0.1249 (2×) and 0.1259. For the same compound, the Emax [19] was 91.7 ± 11.6%, the Emax [20] was 16.9 ± 2.26% and the Emax [21] was 22.7 ± 1.59%. For the same compound, the Emax [22] was 26.5 ± 1.01%, the Emax [23] was 64.6 ± 1.35% and the Emax [24] was 62.2 ± 1.08%. The “serum stability, amount remaining, Figure S15” value ([25]; Time (min) 0) was 100, the stable in serum [25, 29] was “at least 50 h” and the remaining at 5 min, 50 µM ([25]; human, human serum, serum stability, amount remaining, Figure S15, Time (min) 5) was 94%. For the same compound, the remaining at 10 min, 50 µM ([25]; human, human serum, serum stability, amount remaining, Figure S15, Time (min) 10) was 94%, the remaining at 20 min, 50 µM ([25]; human, human serum, serum stability, amount remaining, Figure S15, Time (min) 20) was 99% and the remaining at 40 min, 50 µM ([25]; human, human serum, serum stability, amount remaining, Figure S15, Time (min) 40) was 96%. It also gave a remaining at 1 h, 50 µM ([25]; human, human serum, serum stability, amount remaining, Figure S15, Time (min) 60) of 106%, a remaining at 2 h, 50 µM ([25]; human, human serum, serum stability, amount remaining, Figure S15, Time (min) 120) of 98% and a remaining at 4 h, 50 µM ([25]; human, human serum, serum stability, amount remaining, Figure S15, Time (min) 240) of 101%. The remaining at 6 h, 50 µM ([25]; human, human serum, serum stability, amount remaining, Figure S15, Time (min) 360) was 99%, the remaining at 24 h, 50 µM ([25]; human, human serum, serum stability, amount remaining, Figure S15, Time (min) 1440) was 98% and the remaining at 48 h, 50 µM ([25]; human, human serum, serum stability, amount remaining, Figure S15, Time (min) 2880) was 96%. It also gave a remaining at 48 h, 50 µM ([25]; human, human serum, serum stability, remaining intact, after 48 h, 37 °C) greater than 95%, an Emax [26] of 92 ± 1% and an Emax [27] of 83%. It also gave an Emax [28] of 30%.
